Results published in patent publication US7282339B2, “Competitive immunoassay” (Invitrogen Corporation, priority 2003, dated 2007).

Legend:
[1] = tested on: P-Tyr-100 antiphosphotyrosine monoclonal antibody; test: Ligand analog screening: fluorescence intensity and polarization vs P-Tyr-100 antibody concentration (Examples 22, 24); format: binding, mouse; conditions: for Fmax/Fmin: ratio of fluorescence intensity at lowest (Fmax) to highest (Fmin) antibody concentration, 50 nM ligand analog, P-Tyr-100 0.8 to 500 nM, ex/em 480/535 nm
Method: Solutions of test compounds (100 nM) were prepared were prepared in 50 mM Tris-HCl pH 7.5, 10 mM MgCl2, 0.01% Brij-35, 500 μM ATP, 2 mM DTT, 1 mM EGTA. 20 μl aliquots of these solutions were pipetted into the wells of a 384-well microplate. 20 μl aliquots of a serially-diluted […] stock solution of P-Tyr-100 antiphosphotyrosine monoclonal antibody (Cell Signaling Technology, Beverly, Mass.) were added to the wells. The resulting samples contained 50 nM of each ligand analog (Compounds 15, 7, 8, 9, 18 and 19) and antibody concentrations ranging from 0.8 to 500 nM. Fluorescence polarization and intensity of the samples was measured on an EnVision microplate reader (PerkinElmer Life Sciences) using excitation/emission filter settings of 480/535 nm. Increasing fluorescence polarization as a function of antibody concentration (A) provides confirmation of ligand analog binding to the antibody. […] Phosphotyrosine peptide, target ligand, (phospho-pp60 c-src (521-533); TSTEPQY*QPGENL, Bachem California, Inc. Torrance, Calif.) was then added to all samples at a concentration of 10 μM and the fluorescence intensity and polarization measurements were repeated (C, D). […] Displacement of the ligand analogs from antibody is confirmed by depolarization of fluorescence (D compared to A). […] See, FIG. 14.
Compound 12 and Compound 13 were assessed for efficacy using the methods described in Example 22. […] Samples containing 100 nM of Compound 13 and additional components identified in the figure legend were prepared in 50 mM Tris-HCl pH 7.5, 10 mM MgCl2, 0.01% Brij-35, 100 μM ATP, 2 mM DTT, 1 mM EGTA. 100 μL volumes of these samples were transferred to microcuvettes. The fluorescence emission spectrum was recorded for each sample using a Hitachi F-4500 spectrofluorometer (excitation wavelength=520 nm). See, FIG. 15

[2] = tested on: Compound 15+P-Tyr-100 complex; test: Displacement of phosphotyramide ligand analog by phosphotyrosine peptide but not by ATP (Example 17); format: binding, mouse; conditions: zero to 1 mM ATP
Method: A 5 mM solution of Compound 15 was prepared in water. Separate reactions of 100 nM Compound 15+/−100 nM P-Tyr-100 (Cell Signaling Technology, catalog # 9411) complexes were made in kinase buffer with various amounts of ATP (50 mM Tris, pH 7.5, 10 mM MgCl2, 1 mM EGTA, 0.01% Brij 35, 2 mM DTT, with zero, 0.1, 0.25, 0.5, or 1 mM ATP). The fluorescence emission of each of the ten solutions was measured using a Hitachi F-4500 spectrofluorometer (Ex 450, Em 510, slit width 5 nm for both wavelengths, PMT gain 700 V). After the initial read, 10 μM phospho-pp60 c-src (10 μM final concentration) peptide (521-533) (TSTEPQY*QPGENL) (Bachem, catalog # H-3258) in kinase buffer was added to the antibody:ligand reactions, and the resulting fluorescence intensity was measured on the same instrument at the same settings.

[3] = tested on: P-Tyr-100 monoclonal anti-phosphotyrosine antibody; test: Competitive immunoassay with Compound 15, anti-phosphotyrosine antibody and phosphotyrosine peptide (Example 12); format: binding, mouse; conditions: 100 nM ligand analog + 100 nM P-Tyr-100, kinase buffer
Method: A 5 mM solution of Compound 15 was prepared in water. In 150 μl kinase buffer (50 mM Tris, pH 7.5, 10 mM MgCl2, 1 mM EGTA, 0.01% Brij 35, 2 mM DTT, 100 μM ATP) several separate reactions were made containing: 1) 100 nM Compound 15; 2) 100 nM […]+100 nM P-Tyr-100 monoclonal anti-phosphotyrosine antibody (Cell Signaling Technology, catalog # 9411); 3) 100 nM Compound 15+100 nM P-Tyr-100+10 μM phospho-pp60 c-src peptide (521-533) (TSTEPQY*QPGENL) from Bachem, catalog # H-3258; 4) 100 nM Compound 15+100 nM P-Tyr-100+10 μM phospho-abl peptide (EAIY*AAPFAKKK), custom peptide MPIJ6 from Anaspec. The resulting fluorescence was measured using a Hitachi F-4500 cuvette fluorimeter using 100 μl cuvettes. The F-4500 was set on ‘emission scan’, with an excitation at 470 nm, slit width of 5 nm, emission scan from 485-650 nm, slit width 5 nm, and the PMT gain was at 700 V.

[4] = biological target: P-Tyr-100 anti-phosphotyrosine monoclonal antibody; test: Determination of dissociation constants for antibody-ligand complexes (Example 23); format: binding, mouse; conditions: 1 nM test compound, P-Tyr-100 0.02 to 40 nM; fluorescence intensity, single-site saturation fit; read-out: dissociation constant
Method: Solutions of Compound 15 and Compound 34 (2 nM) were prepared in 50 mM Tris-HCl pH 7.5, 10 mM MgCl2, 0.01% Brij-35, 500 μM ATP, 2 mM DTT, 1 mM EGTA, 0.5 mg/ml bovine serum albumin. 25 μl aliquots of these solutions were pipetted into the wells of a 384-well microplate. 25 μl aliquots of a serially-diluted 0.08 μM stock solution of P-Tyr-100 anti-phosphotyrosine monoclonal antibody (Cell Signaling Technology, Beverly, Mass.) were added to the wells. The resulting samples contained 1 nM test compound and antibody concentrations ranging from 0.02 to 40 nM. Fluorescence intensities of triplicate samples at each antibody concentration were measured on an EnVision microplate reader (PerkinElmer Life Sciences) using excitation/emission filter settings of 480/535 nm. The mean (n=3) fluorescence intensities were plotted against the corresponding antibody concentrations. Dissociation constants were determined from hyperbolic single-site saturation binding functions fitted to the experimental data by nonlinear regression analysis (SigmaPlot, Jandel Scientific Inc). The dissociation constants obtained were 2.0 nM for Compound 15+P-Tyr-100 and 1.7 nM for Compound 34+P-Tyr-100.

[5] = tested on: P-Tyr-100 monoclonal anti-phosphotyrosine antibody; test: Rapid displacement of the ligand analog by the target ligand, off rate (Example 13); format: binding, mouse; conditions: 100 nM Compound 15+100 nM P-Tyr-100; 10 μM phospho-pp60 c-src peptide added
Method: A 5 mM solution of Compound 15 was prepared in water. In 150 μl kinase buffer (50 mM Tris, pH 7.5, 10 mM MgCl2, 1 mM EGTA, 0.01% Brij 35, 2 mM DTT, 100 μM ATP) a reaction was made containing 100 nM Compound 15+100 nM P-Tyr-100 monoclonal anti-phosphotyrosine antibody (Cell Signaling Technology, catalog # 9411). The fluorescence was measured over time using a Hitachi F-4500 fluorimeter (Ex 470, Em 510, slit width 5 nm for both wavelengths, PMT gain 700 V). After 15 seconds, 10 μM phospho-pp60 c-src peptide (521-533) (TSTEPQY*QPGENL) from Bachem, catalog # H-3258 was added.

[6] = tested on: P-Tyr-100 monoclonal anti-phosphotyrosine antibody; test: Z′ factor of displacement assay with Compound 34 (Example 14); format: binding, mouse; conditions: Compound 34+P-Tyr-100 complex, phospho-pp60 c-src peptide
Method: A 2 mM solution of Compound 34 was prepared in water. Two working stocks were prepared in kinase buffer (50 mM Tris, pH 7.5, 10 mM MgCl2, 1 mM EGTA, 0.01% Brij 35, 2 mM DTT, 100 μM ATP): 1) 50 nM of Compound 34+100 nM P-Tyr-100 monoclonal anti-phosphotyrosine antibody (Cell Signaling Technology, catalog # 9411); 2) 100 μM phospho-pp60 c-src peptide (521-533) (TSTEPQY*QPGENL) from Bachem, catalog # H-3258. In two 384-well microplates, […] of the 50 nM Compound 34+100 nM P-Tyr-100 complex was added to 96 wells in each plate. To the same wells, 25 μl of either kinase buffer alone (48 wells each plate) or the 100 μM phospho-pp60 c-src peptide in kinase buffer (48 wells each plate) was added. The fluorescence was measured in a Victor^2 microplate reader (Wallac), 1 read/well for 0.2 sec each at 30000V gain, excitation 485+/−17.5 nm, emission 535+/−12.5 nm.
The Z′ statistic was calculated using equation 5 from Zhang, J.-H., Chung, T., D., Y., and Oldenburg, K. R. (1999) A simple statistical parameter for use in evaluation and validation of high throughput screening assays. J. Biomol. Screen. 4, 67-73. […] In other words, there is a 4-fold increase in fluorescent signal after the ligand analog is displaced by the phosphorylated peptide. See, FIG. 6.

[7] = tested on: Rabbit anti-Akt polyclonal antibody; test: Binding of ethanolamine phosphate ligand analog by anti-Akt antibody (Example 10); conditions: 50 nM compound, antibody zero to 250 nM
Method: A 5 mM solution of BODIPY FL ethanolamine phosphate Compound 2 was made in water. A 2.5 mM solution of BODIPY FL ethanolamine (Compound 1) was made in 50% (v/v) DMSO, See Example 1. Rabbit anti-Akt polyclonal antibody (Cell Signaling Technology, catalog # 9611) was serially diluted in 5 μl 50 mM Tris buffer, pH 7.5 in a black, 384-well flat-bottom Packard ProxiPlate preblocked with 0.25% (v/v) Mowiol. After the antibody was serially diluted in the plate, 5 μl of either Compound 2 or Compound 1 was added to the same wells. The final concentration of both compounds in the wells was each 50 nM. The final antibody concentration in the wells was zero to 250 nM. The fluorescence intensity was measured on an EnVision microplate reader (Perkin Elmer), PMT 1 gain 155, PMT 2 gain 191, excitation light 76%, 100 flashes at 9 mM height.

[8] = tested on: Compound 15+P-Tyr-100 complex; test: Selectivity of displacement of Compound 15 by peptides or proteins (Example 16); format: binding, mouse; conditions: peptides or proteins serially diluted from 80 μM
Method: A 5 mM solution of Compound 15 was prepared in water. In kinase buffer (50 mM Tris, pH 7.5, 10 mM MgCl2, 1 mM EGTA, 0.01% Brij 35, 2 mM DTT, 100 μM ATP) 80 μM solutions of six different peptides or proteins were made: 1) phospho-pp60 c-src peptide (521-533) (TSTEPQY*QPGENL) (Bachem, catalog # H-3258); 2) non-phospho-pp60 c-src peptide (521-533) (TSTEPQYQPGENL) (Bachem, catalog # H-3256); 3) phospho-DSIP peptide (WAGGDAS*GE) (SynPep, catalog # 3920); 4) phospho-RRA(pT)VA peptide (RRAT*VA) (Sigma, catalog V248A); 5) beta-casein (Sigma, catalog # C6905); 6) bovine serum albumin (Sigma, catalog # A7284). These peptides or proteins were serially diluted 2-fold in 20 μl in a 0.025% Mowiol-blocked 384-well black Packard OptiPlate. 20 μl of a 2× mix of 50 nM of Compound 15+100 nM P-Tyr-100 (Cell Signaling Technology, catalog # 9411) complex in kinase buffer was added to the wells. The fluorescence intensity was measured on an EnVision microplate reader (Perkin Elmer), PMT 1 gain 155, PMT 2 gain 183, excitation light 60%, 100 flashes at 9 mM height.

## 6-FITC phosphotyramide [Compound 19]
[1]
  Fmax/Fmin: 1.6

## Nc1ncnc2c1ncn2[C@@H]1O[C@H](COP(=O)(O)OP(=O)(O)OP(=O)(O)O)[C@@H](O)[C@H]1O [ATP]
[2]
  displacement of the phosphotyramide ligand analog: does not displace

## O=C(CSc1c(F)c(F)c(C(=O)O)c(-c2c3cc(F)c(=O)cc-3oc3cc(O)c(F)cc23)c1F)NCCc1ccc(OP(=O)(O)O)cc1 [Compound 7, Oregon Green 514 phosphotyramide]
[1]
  Fmax/Fmin: 4.0

## O=C(NCCc1ccc(OP(=O)(O)O)cc1)c1ccc(-c2c3ccc(=O)cc-3oc3cc(O)ccc23)c(C(=O)O)c1 [Compound 8, 5-FAM phosphotyramide]
[1]; fluorescence intensity readout
  performance in displacement assay, 6-position vs 5-position: superior performance
[1]
  Fmax/Fmin: 1.3

## O=C(NCCc1ccc(OP(=O)(O)O)cc1)c1ccc(C(=O)O)c(-c2c3ccc(=O)cc-3oc3cc(O)ccc23)c1 [Compound 9, 6-FAM phosphotyramide]
[1]; compared to Compound 8
  binding affinity for the antibody, 6-isomer compared to 5-isomer: increased binding affinity
  quenching by the antibody, 6-isomer compared to 5-isomer: increased quenching
[1]
  Fmax/Fmin: 3.2

## CN(C)c1ccc2c(-c3cc(C(=O)NCCc4ccc(OP(=O)([O-])O)cc4)ccc3C(=O)O)c3ccc(=[N+](C)C)cc-3oc2c1 [Compound 12]
[1]; methods of Example 22
  fluorescence intensity change on antibody binding: little or no analytically useful fluorescence intensity change
  fluorescence polarization change on antibody binding: large fluorescence polarization changes

## O=C(NCCc1ccc(OP(=O)(O)O)cc1)c1ccc(C(=O)O)c(-c2c3cc(F)c(=O)cc-3oc3cc(O)c(F)cc23)c1 [Compound 15, Oregon Green 488 6-phosphotyramide]
[3]
  quenching of the reporter molecule on addition of P-Tyr-100 antibody: significantly quenched
[1]
  Fmax/Fmin: 5.4
[4]
  Kd: 2 nM
[5]
  off rate: 0.14 s⁻¹

## O=C(O)c1cc(NC(=S)NCCc2ccc(OP(=O)(O)O)cc2)ccc1-c1c2ccc(=O)cc-2oc2cc(O)ccc12 [Compound 18, 5-FITC phosphotyramide]
[1]
  Fmax/Fmin: 1.7

## NC(=O)C(Cc1ccc(OP(=O)(O)O)cc1)NC(=O)c1ccc(C(=O)O)c(-c2c3cc(F)c(=O)cc-3oc3cc(O)c(F)cc23)c1 (stereo not shown) [Compound 34]
[6]
  increase in fluorescent signal after the ligand analog is displaced by the phosphorylated peptide: 4 fold
[4]
  Kd: 1.7 nM

## BODIPY FL ethanolamine phosphate [Compound 2]
[7]
  quenching of ligand analog when bound by the antibody: slightly quenched

## TSTEPQY*QPGENL [phospho-pp60 c-src peptide]
[8]
  displacement of the ligand analog (Compound 15): significantly displaces
